Measurements as given in US7786160B2, “Combination of selected analgesics and COX-II inhibitors” (Gruenenthal GmbH, priority 2002, dated 2010).
Like-named read-outs stand apart in the source and are kept apart here.

Legend:
Type in all cases: in vivo
mouse = experiment: Formalin test (chronic pain component), mouse; details: peroral, substance alone
Method: (§1) The formalin test (Dubuisson, D. and Dennis, S. G., 1977, Pain, 4, 161 to 174) is a model for acute and chronic pain. In the tests presented here, the chronic pain component was evaluated.
(§2) By means of a single formalin injection into the dorsal side of a hind paw of test animals that were able to move freely, a biphasic nociceptive reaction, which was detected by the observation of three clearly distinguishable behavioural patterns, was induced.
(§3) Formalin having a volume of 20 μl and a concentration of 1% was administered subcutaneously into the dorsal side of the right hind paw of each animal. The specific behavioural changes, such as raising and shaking of the paw, weight loss in the animal and biting and licking reactions, were continuously observed and registered for up to 60 min after the formalin administration. The behavioural changes were weighted differently (a score of 0 to 3) and a pain rate (PR) calculated having the general formula: PR=[(T0×0)+(T1×1)+(T2×2)+(T3×3)/180.
(§4) The group contained 10 animals (n=10).

rat [1] = experiment: Formalin test (chronic pain component), rat; details: peroral, substance alone
Method: as §1, §2, §3, §4

rat [2] = experiment: Randall-Selitto test (yeast oedema, model for inflammatory pain); details: for effect of compound A with COX-II inhibitor (Rofecoxib or Celecoxib) compared with additive (in words): staggered administration, Rofecoxib or Celecoxib 1 hour prior to compound A
Method: The Randell-Selitto test of Randall and Selitto (Arch. Int. Pharmacodyn., 1957, 111: 409 to 419) is a model for inflammatory pain.
By means of the injection of 0.1 ml 20% baking yeast suspension ventrally into a hind paw an oedema was induced, on which pain was generated 4 hours later by continuously increasing pressure with a stamp (2 mm tip diameter). The measured value to be determined and at the same time also the end point of the pain test was the pressure at which the vocalisation reaction of the animal occurred. The percentage maximum possible effect (%MPE) was calculated. The maximum pressure of the stamp was 250 g. The group size was n=10.
The theoretical additive value was calculated by adding the mean values from the individual tests of the test substance and COX-II inhibitor. The corresponding standard deviation of the theoretical additive mean value was calculated from the addition of the variances.

[3] = All listed animal models together (acute, chronic and inflammatory pain); details: simultaneous administration with a selective COX-II inhibitor (Rofecoxib or Celecoxib), chronic and inflammatory pain (Table 1)
Method: 1, 4, 2 and 2 (Randall-Selitto test). In these tests, either Rofecoxib or Celecoxib was administered 1 hour prior to the administration of the selected analgesic (compound A). In a few tests, Rofecoxib was administered as the final preparation Vioxx and Celecoxib as Celebrex.

rat [4] = experiment: Writhing test (acetic acid, model for acute pain); details: peroral, substance alone
Method: The writhing test is a modification of the method of Schmauss C and Yaksh TL, J Pharmacol Exp Ther 228: 1-12 (1984) and a model for acute pain.
9% acetic acid was administered to the animals intraperitoneally as a pain stimulus. This was administered 30 min (test substance perorally) or 10 min (test substance intravenously) after the administration of the test substance. The pain-induced writhing reactions were recorded 10 to 35 min after the administration of acetic acid. […] Pain expressions, such as a slanting body angle when the animal stands upright, frequent cleaning of the belly or arching of the back without stretching of the rear limbs, were thus included in the evaluation.
The animals that had been treated with the substance were compared with a control group, which had been given physiological saline solution. The group contained 10 animals (n=10).

[5] = read-out: ED50 [mg/kg] of COX-II inhibitor
[6] = read-out: ED50 [mg/kg] of compound A

Cc1ccc(-c2cc(C(F)(F)F)nn2-c2ccc(S(N)(=O)=O)cc2)cc1 [Compound 101, Celecoxib, reference compound]
ED50 (mouse; [5]): 38.5 mg/kg
ED50 (rat [1]; [5]): 154 mg/kg
% effect of COX-II inhibitor (rat [2]; fixed dose combination (not staggered), COX-II inhibitor alone 215 mg/kg peroral, %MPE): 9.8%

CN(C)C[C@@H]1CCCC[C@H]1c1cccc(O)c1.Cl [Compound 1, (1R,2R)-3-(2-dimethylaminomethyl-cyclohexyl)-phenol; hydrochloride]
% effect of compound A (rat [2]; Table 3, staggered series, compound A alone 46.4 mg/kg peroral): 26.2%
effect of compound A with COX-II inhibitor (Rofecoxib or Celecoxib) compared with additive (in words) (rat [2]): clear effect-increasing supra-additive effect
effect in comparison to the theoretically calculated purely additive effect [3]: intensification of effect

CC[C@@H](c1cccc(O)c1)[C@@H](C)CN(C)C.Cl [Compound 2, (1R,2R)-3-(3-dimethylamino-1-ethyl-2-methyl-propyl)-phenol; hydrochloride]
ED50 (mouse; [6]): 34.6 mg/kg
ED50 (rat [4]; [6]): 33 mg/kg
ED50 (rat [1]; [6]): 18 mg/kg
% effect of compound A (rat [2]; Table 1, staggered administration series, compound A alone 31 mg/kg peroral): 20.0%
% effect of compound A (rat [2]; Table 1, staggered administration series, compound A alone 46 mg/kg peroral): 32.6%
% effect of compound A (rat [2]; fixed dose combination (not staggered), compound A alone 31 mg/kg peroral, %MPE): 13.3%
effect of compound A with COX-II inhibitor (Rofecoxib or Celecoxib) compared with additive (in words) (rat [2]): clear effect-increasing supra-additive effect

CS(=O)(=O)c1ccc(C2=C(c3ccccc3)C(=O)OC2)cc1 [Compound 102, Rofecoxib, reference compound]
ED50 (rat [4]; [5]): 60.1 mg/kg

CC[C@H](c1cccc(O)c1)[C@H](C)CN(C)C.Cl [Compound 3, (1S,2S)-3-(3-dimethylamino-1-ethyl-2-methyl-propyl)-phenol; hydrochloride]
% effect of compound A (rat [2]; Table 4, staggered series, compound A alone 21.5 mg/kg peroral): 22.8%

COc1cccc([C@@]2(O)C[C@H](O)CC[C@@H]2CN(C)C)c1.Cl (racemic) [Compound 4]
% effect of compound A (rat [2]; Table 2, staggered series, compound A alone 68.1 mg/kg peroral, 15-75 min after administration of compound No. 4): 85.4%
% effect of compound A (rat [2]; Table 2, staggered series, compound A alone 68.1 mg/kg peroral, 75-90 min after administration of compound No. 4): 45.2%
effect of compound A with COX-II inhibitor (Rofecoxib or Celecoxib) compared with additive (in words) (rat [2]): clear effect-increasing supra-additive effect
